How the values were obtained:
Myzus persicae = Myzus persicae test (cabbage leaf dip, mortality); assay type: in vivo; conditions: mortality after 6 days, cabbage leaves dipped
Experimental: (§1) To produce a suitable preparation of active compound, 1 part by weight of active compound is mixed with the stated amount of solvent and emulsifier, and the concentrate is diluted with emulsifier-containing water to the desired concentration.
Cabbage leaves (Brassica oleracea) which are heavily infested by the green peach aphid (Myzus persicae) are treated by being dipped into the preparation of the active compound at the desired concentration.
After a period of time of 6 days, the mortality is determined. 100% means that all the […] have been killed; 0% means that none of the […] have been killed.

Plasmopara viticola = conditions: straight use of the compound; WO-99/42468; cited from earlier work
Phaedon cochleariae = Phaedon cochleariae test (cabbage leaf dip, larvae, mortality); assay type: in vivo; conditions: mortality after 4 days, cabbage leaves dipped
Experimental: as §1
Cabbage leaves (Brassica oleracea) are treated by being dipped into the preparation of the active compound at the desired concentration and are infested with larvae of the mustard beetle Phaedon cochleariae as long as the leaves are still moist.
After a period of time of 4 days, the mortality is determined. 100% means that all the […] have been killed; 0% means that none of the […] have been killed.

Plutella xylostella = Plutella xylostella test (cabbage leaf dip, larvae, mortality); assay type: in vivo; conditions: mortality after 6 days, cabbage leaves dipped
Experimental: as §1
Cabbage leaves (Brassica oleracea) are treated by being dipped into the preparation of the active compound at the desired concentration and are infested with larvae of the diamond black moth Plutella xylostella as long as the leaves are still moist.
After a period of time of 6 days, the mortality is determined. 100% means that all the caterpillars have been killed; 0% means that none of the caterpillars have been killed.

SMILES: CN/C(=N\[N+](=O)[O-])NCc1cnc(Cl)s1 [Clothianidin, clothianidin]
- Efficacy (%) (Myzus persicae; rate of application 0.8 ppm): 75%

SMILES: CCCOC(=O)NCCCN(C)C.CCO[PH](=O)O [Propamocarb-fosetylate, dimethyl-[3-(propoxycarbonylamino)propyl]ammonium-O-ethylphosphonate]
- Efficacy (%) (Myzus persicae; rate of application 200 ppm): 0%
- fungicide activity to control Plasmopara viticola (Plasmopara viticola): Some fungicide activity
- Efficacy (%) (Phaedon cochleariae; rate of application 200 ppm): 5%
- Efficacy (%) (Plutella xylostella; rate of application 200 ppm): 0%

SMILES: O=[N+]([O-])NC1=NCCN1Cc1ccc(Cl)nc1 [Imidacloprid, imidacloprid]
- Efficacy (%) (Phaedon cochleariae; rate of application 20 ppm): 80%

SMILES: N#C/N=C1\SCCN1Cc1ccc(Cl)nc1 [thiacloprid]
- Efficacy (%) (Plutella xylostella; rate of application 20 ppm): 20%

— patent US8969392B2, “Pesticide composition comprising propamocarb-fosetylate and an insecticidally active substance” (Bayer Cropscience AG, priority 2006, dated 2015)
